Source: publication PMC9250534, “Synthesis and direct assay of large macrocycle diversities by combinatorial late-stage modification at picomole scale” (Nature Communications, 2022)

These compounds were tested against MDM2 (Homo sapiens, UniProt Q00987) (assay: MDM2 binding screen of Libraries 3 and 4: displacement of fluorescent probe F-M8 at 750 nM macrocycle). Conditions: Panel b, Library 3: 63 scaffolds combinatorially acylated with 15 carboxylic acids at 30 picomole scale; displacement of fluorescent peptide probe; macrocycle 750 nM.
How it was run: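 Cyclic peptide scaffolds were acylated in DMSO with carboxylic acids (20 equiv.), HBTU and DABCO for 6 h at room temperature. Reactions were quenched overnight in 100 mM Tris-Cl pH 7.4, 0.01% Tween20. The fluorescein conjugate was also competed with nutlin-3a.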

Sequence of MDM2 (Q00987 whole entry): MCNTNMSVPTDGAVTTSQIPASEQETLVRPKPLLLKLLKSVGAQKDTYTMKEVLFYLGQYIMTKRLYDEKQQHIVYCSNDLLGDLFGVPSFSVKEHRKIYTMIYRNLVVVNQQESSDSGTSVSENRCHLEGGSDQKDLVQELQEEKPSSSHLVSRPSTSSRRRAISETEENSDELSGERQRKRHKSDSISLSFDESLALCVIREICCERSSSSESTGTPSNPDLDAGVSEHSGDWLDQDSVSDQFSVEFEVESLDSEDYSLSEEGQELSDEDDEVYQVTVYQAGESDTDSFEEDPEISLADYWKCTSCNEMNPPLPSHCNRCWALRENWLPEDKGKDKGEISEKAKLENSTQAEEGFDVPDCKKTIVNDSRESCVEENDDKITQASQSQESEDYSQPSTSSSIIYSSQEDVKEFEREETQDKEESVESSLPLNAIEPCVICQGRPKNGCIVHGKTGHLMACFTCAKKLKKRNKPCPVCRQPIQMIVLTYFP

Point of comparison: O=C(/C=C/c1ccc2ccccc2c1)NCCN1CC(=O)N[C@H](Cc2c[nH]c3ccccc23)C(=O)NCCSSCCC(=O)NCC2(CC2)C1=O [X-Amcp-N-Aeg-D-Trp + Acid 112], “fraction of fluorescent probe displaced” value 0.008. Against it:
- O=C(/C=C/c1ccc2ccccc2c1)NCCN1CC(=O)N[C@@H](Cc2c[nH]c3cc(Cl)ccc23)C(=O)NCCSSCCC(=O)NCC2(CC2)C1=O [X-Amcp-N-Aeg-Cl-Trp + Acid 112] — lower, -0.019
- O=C(CCS(=O)(=O)c1ccccc1)NCCN1CC(=O)N[C@@H](Cc2c[nH]c3cc(Cl)ccc23)C(=O)NCCSSCCC(=O)NCC2(CC2)C1=O [X-Amcp-N-Aeg-Cl-Trp + Acid 114] — lower, -0.00533
- O=C1CCSSCCNC(=O)[C@H](Cc2c[nH]c3cc(Cl)ccc23)NC(=O)CN(CCNC(=O)C2COc3ccccc3O2)C(=O)C2(CC2)CN1 (stereo partly drawn) [X-Amcp-N-Aeg-Cl-Trp + Acid 115] — lower, 0.00133
- O=C(/C=C/c1ccc(Cl)cc1)NCCN1CC(=O)N[C@H](Cc2c[nH]c3ccccc23)C(=O)NCCSSCCC(=O)NCC2(CC2)C1=O [X-Amcp-N-Aeg-D-Trp + Acid 108] — higher, 0.035
- O=C(/C=C/c1ccc(OCc2ccccc2)cc1)NCCN1CC(=O)N[C@H](Cc2c[nH]c3ccccc23)C(=O)NCCSSCCC(=O)NCC2(CC2)C1=O [X-Amcp-N-Aeg-D-Trp + Acid 110] — higher, 0.015
- O=C1CCSSCCNC(=O)[C@@H](Cc2c[nH]c3ccccc23)NC(=O)CN(CCNC(=O)c2cccc(Oc3ccccc3)c2)C(=O)C2(CC2)CN1 [X-Amcp-N-Aeg-D-Trp + Acid 111] — the same, 0.008
- CC(Oc1cccc(Cl)c1)C(=O)NCCN1CC(=O)N[C@H](Cc2c[nH]c3ccccc23)C(=O)NCCSSCCC(=O)NCC2(CC2)C1=O (stereo partly drawn) [X-Amcp-N-Aeg-D-Trp + Acid 113] — lower, 0.00133
- O=C(CCS(=O)(=O)c1ccccc1)NCCN1CC(=O)N[C@H](Cc2c[nH]c3ccccc23)C(=O)NCCSSCCC(=O)NCC2(CC2)C1=O [X-Amcp-N-Aeg-D-Trp + Acid 114] — higher, 0.055
- O=C1CCSSCCNC(=O)[C@@H](Cc2c[nH]c3ccccc23)NC(=O)CN(CCNC(=O)C2COc3ccccc3O2)C(=O)C2(CC2)CN1 (stereo partly drawn) [X-Amcp-N-Aeg-D-Trp + Acid 115] — higher, 0.048
- Cn1cc(C[C@@H]2NC(=O)CN(CCNC(=O)c3ccc(Cl)s3)C(=O)C3(CC3)CNC(=O)CCSSCCNC2=O)c2ccccc21 [X-Amcp-N-Aeg-Me-Trp + Acid 14] — lower, -0.00533
- Cn1cc(C[C@@H]2NC(=O)CN(CCNC(=O)c3ccc(Cl)cc3)C(=O)C3(CC3)CNC(=O)CCSSCCNC2=O)c2ccccc21 [X-Amcp-N-Aeg-Me-Trp + Acid 25] — lower, -0.012
- Cn1cc(C[C@@H]2NC(=O)CN(CCNC(=O)c3ccc4ccccc4c3)C(=O)C3(CC3)CNC(=O)CCSSCCNC2=O)c2ccccc21 [X-Amcp-N-Aeg-Me-Trp + Acid 107] — lower, -0.002
- Cn1cc(C[C@@H]2NC(=O)CN(CCNC(=O)/C=C/c3ccc(OCc4ccccc4)cc3)C(=O)C3(CC3)CNC(=O)CCSSCCNC2=O)c2ccccc21 [X-Amcp-N-Aeg-Me-Trp + Acid 110] — higher, 0.015
- Cn1cc(C[C@@H]2NC(=O)CN(CCNC(=O)c3cccc(Oc4ccccc4)c3)C(=O)C3(CC3)CNC(=O)CCSSCCNC2=O)c2ccccc21 [X-Amcp-N-Aeg-Me-Trp + Acid 111] — higher, 0.015
- Cn1cc(C[C@@H]2NC(=O)CN(CCNC(=O)/C=C/c3ccc4ccccc4c3)C(=O)C3(CC3)CNC(=O)CCSSCCNC2=O)c2ccccc21 [X-Amcp-N-Aeg-Me-Trp + Acid 112] — higher, 0.028
- CN1C(=O)CN(CCNC(=O)c2ccc(Cl)s2)C(=O)C2(CC2)CNC(=O)CCSSCCNC(=O)[C@@H]1Cc1c[nH]c2ccccc12 [X-Amcp-N-Aeg-NMe-Trp + Acid 14] — lower, -0.012
- CN1C(=O)CN(CCNC(=O)c2ccc(Cl)cc2)C(=O)C2(CC2)CNC(=O)CCSSCCNC(=O)[C@@H]1Cc1c[nH]c2ccccc12 [X-Amcp-N-Aeg-NMe-Trp + Acid 25] — lower, -0.012
- CN1C(=O)CN(CCNC(=O)c2ccc3ccccc3c2)C(=O)C2(CC2)CNC(=O)CCSSCCNC(=O)[C@@H]1Cc1c[nH]c2ccccc12 [X-Amcp-N-Aeg-NMe-Trp + Acid 107] — higher, 0.031
- CN1C(=O)CN(CCNC(=O)/C=C/c2ccc(OCc3ccccc3)cc2)C(=O)C2(CC2)CNC(=O)CCSSCCNC(=O)[C@@H]1Cc1c[nH]c2ccccc12 [X-Amcp-N-Aeg-NMe-Trp + Acid 110] — lower, -0.00533
- CN1C(=O)CN(CCNC(=O)c2cccc(Oc3ccccc3)c2)C(=O)C2(CC2)CNC(=O)CCSSCCNC(=O)[C@@H]1Cc1c[nH]c2ccccc12 [X-Amcp-N-Aeg-NMe-Trp + Acid 111] — lower, 0.00133
- CN1C(=O)CN(CCNC(=O)/C=C/c2ccc3ccccc3c2)C(=O)C2(CC2)CNC(=O)CCSSCCNC(=O)[C@@H]1Cc1c[nH]c2ccccc12 [X-Amcp-N-Aeg-NMe-Trp + Acid 112] — lower, -0.019
- O=C1CCSSCCNC(=O)[C@H](Cc2c[nH]c3ccccc23)NC(=O)CN(CCNC(=O)c2ccc(Cl)cc2)C(=O)C2(CC2)CN1 [X-Amcp-N-Aeg-Trp + Acid 25] — lower, 0.00133
- O=C1CCSSCCNC(=O)C(Cc2c[nH]c3ccccc23)NC(=O)CN(CCNC(=O)C2CC2c2ccccc2)C(=O)C2(CC2)CN1 (stereo not drawn) [X-Amcp-N-Aeg-Trp + Acid 105] — lower, -0.015
- O=C1CCSSCCNC(=O)[C@H](Cc2c[nH]c3ccccc23)NC(=O)CN(CCNC(=O)c2ccc3ccccc3c2)C(=O)C2(CC2)CN1 [X-Amcp-N-Aeg-Trp + Acid 107] — higher, 0.018
- O=C(/C=C/c1ccc(OCc2ccccc2)cc1)NCCN1CC(=O)N[C@@H](Cc2c[nH]c3ccccc23)C(=O)NCCSSCCC(=O)NCC2(CC2)C1=O [X-Amcp-N-Aeg-Trp + Acid 110] — higher, 0.015
- O=C(/C=C/c1ccc2ccccc2c1)NCCN1CC(=O)N[C@@H](Cc2c[nH]c3ccccc23)C(=O)NCCSSCCC(=O)NCC2(CC2)C1=O [X-Amcp-N-Aeg-Trp + Acid 112] — higher, 0.041
- CC(Oc1cccc(Cl)c1)C(=O)NCCN1CC(=O)N[C@@H](Cc2c[nH]c3ccccc23)C(=O)NCCSSCCC(=O)NCC2(CC2)C1=O (stereo partly drawn) [X-Amcp-N-Aeg-Trp + Acid 113] — higher, 0.035
- O=C(CCS(=O)(=O)c1ccccc1)NCCN1CC(=O)N[C@@H](Cc2c[nH]c3ccccc23)C(=O)NCCSSCCC(=O)NCC2(CC2)C1=O [X-Amcp-N-Aeg-Trp + Acid 114] — higher, 0.021
- O=C(/C=C/c1ccc(Cl)cc1)NC[C@H]1NC(=O)[C@@H]2CN(CCO2)C(=O)CCSSCCNC(=O)[C@H](Cc2cccc3ccccc23)NC1=O [X-Cop-D-Dap-1-NaI + Acid 108] — higher, 0.028
